Measurements reported in US20230059009A1, “INHIBITORS OF LIN28 AND METHODS OF USE THEREOF” (The Regents of the University of California, priority 2019, published 2023).
Entries after “also recorded” stand apart in the source; their conditions may differ.

Tests used:
CYP 2B6 = molecular target: T1, CYP 2B6 (Homo sapiens, UniProt P20813); assay: CYP inhibition 2B6; format: in vitro ADME; parameters: unit not given here; details: Conc. 30 uM
T1 sequence (P20813 1-491): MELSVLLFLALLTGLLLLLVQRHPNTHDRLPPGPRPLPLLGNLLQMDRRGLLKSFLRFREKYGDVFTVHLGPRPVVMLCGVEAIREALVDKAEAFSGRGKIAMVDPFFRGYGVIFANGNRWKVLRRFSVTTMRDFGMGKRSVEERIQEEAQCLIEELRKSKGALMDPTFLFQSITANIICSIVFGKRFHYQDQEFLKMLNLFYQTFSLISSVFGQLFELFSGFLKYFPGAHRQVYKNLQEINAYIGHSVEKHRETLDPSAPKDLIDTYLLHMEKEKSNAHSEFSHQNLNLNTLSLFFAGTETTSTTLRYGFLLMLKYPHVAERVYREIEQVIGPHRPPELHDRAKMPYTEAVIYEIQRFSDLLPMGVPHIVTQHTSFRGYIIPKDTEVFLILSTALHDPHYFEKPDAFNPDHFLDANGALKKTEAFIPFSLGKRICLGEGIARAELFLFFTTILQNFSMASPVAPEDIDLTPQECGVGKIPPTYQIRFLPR

CYP 2C8 = molecular target: T2, CYP 2C8 (Homo sapiens, UniProt P10632); assay: CYP inhibition 2C8; format: in vitro ADME; parameters: unit not given here; details: Conc. 30 uM
T2 sequence (P10632 1-490): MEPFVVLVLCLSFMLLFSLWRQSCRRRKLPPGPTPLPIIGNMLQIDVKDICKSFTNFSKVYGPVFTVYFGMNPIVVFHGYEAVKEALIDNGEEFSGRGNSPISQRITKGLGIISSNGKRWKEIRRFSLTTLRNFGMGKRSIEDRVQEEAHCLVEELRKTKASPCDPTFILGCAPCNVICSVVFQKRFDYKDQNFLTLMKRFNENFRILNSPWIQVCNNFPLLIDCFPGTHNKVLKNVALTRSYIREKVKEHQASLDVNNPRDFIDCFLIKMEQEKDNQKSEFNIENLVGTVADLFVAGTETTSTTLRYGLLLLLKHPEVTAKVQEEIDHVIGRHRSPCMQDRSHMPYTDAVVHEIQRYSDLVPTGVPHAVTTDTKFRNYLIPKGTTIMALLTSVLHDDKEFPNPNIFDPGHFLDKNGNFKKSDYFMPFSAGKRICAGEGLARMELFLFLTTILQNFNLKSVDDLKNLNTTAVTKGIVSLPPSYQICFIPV

[1] = Tolerability / MTD in healthy C57BL/6 mice
Method: Next, the tumor suppressive effect of LN1632 in vivo was investigated. The maximum tolerated dose (MTD) was evaluated in healthy female C57Bl/6 mice.

[2] = system: THP-1 cells (high LIN28B); assay: Subcutaneous THP-1 AML xenograft; format: in vivo, NSG / NSGS mice; details: for Tumor growth: 100 mg/kg
Method: Subsequently, the tumor suppressive effect of LN1632 in cancer in vivo was assessed. High LIN28B expressing THP-1 AML cells (2×10^6 cells) were implanted in NSGS mice (cell suspension in matrigel, 3:1) and at d+12 or d+8 (tumor size=50 mm^2) injection of LN1632 IP at 100 mg/kg daily was initiated. […] The effect of LN1632 in a systemic Kasumi-1 xenograft was also assessed. […] The effects of LN1632 to cytarabine chemotherapy (Ara-C) was also compared, as previously described (74). THP-1 AML cells were subcutaneously implanted (1.5×10^6 cells, high LIN28B) in NSGS mice. Daily IP injections with 100 mg/kg LN1632, 60 mg/kg cytarabine chemotherapy (Ara-C), or vehicle was started at +d3 post AML cell implantation and continued until the vehicle group reached maximal allowed tumor size (250 mm^2).

AML pt #13 cells = assay: Engraftment of ex vivo treated primary AML pt #13 cells in NSGS; parameters: species or system NSGS mice; details: ex vivo treatment 120 μM for 72 h, 12 weeks
PRPF31 = molecular target: T3, PRPF31 (Homo sapiens, UniProt Q8WWY3); assay: MDA-MB-231 TNBC cell numbers with PRPF31 overexpression or silencing; format: cell-based; parameters: mGFP (C); host or cells: MDA-MB-231 TNBC cells; details: 100 μM LN1632
T3 sequence (Q8WWY3 1-499): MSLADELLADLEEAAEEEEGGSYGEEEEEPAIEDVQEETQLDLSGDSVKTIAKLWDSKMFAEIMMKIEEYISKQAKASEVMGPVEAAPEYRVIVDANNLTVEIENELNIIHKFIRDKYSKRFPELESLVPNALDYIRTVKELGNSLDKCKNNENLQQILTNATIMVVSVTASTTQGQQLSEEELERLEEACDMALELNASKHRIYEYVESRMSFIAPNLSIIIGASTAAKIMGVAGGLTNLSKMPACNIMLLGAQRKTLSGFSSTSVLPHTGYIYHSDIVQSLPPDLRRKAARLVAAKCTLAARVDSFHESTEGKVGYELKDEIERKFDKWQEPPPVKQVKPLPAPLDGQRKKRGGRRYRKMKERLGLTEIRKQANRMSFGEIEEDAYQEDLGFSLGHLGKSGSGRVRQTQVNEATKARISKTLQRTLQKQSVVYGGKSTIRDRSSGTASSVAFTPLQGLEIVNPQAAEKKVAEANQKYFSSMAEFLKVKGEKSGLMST
Excerpt: MDA-MB-231 TNBC cells were used to evaluate whether LN1632 targets PRPF31.

Cc1cnc2ccc(-c3cccc(F)c3)nn12 [JGJ015, 6-(3-Fluorophenyl)-3-methylimidazo[1,2-b]pyridazine]
CYP inhibition 2B6 (CYP 2B6): 67.27
CYP inhibition 2C8 (CYP 2C8): 17.82

CC(=O)Nc1cccc(-c2ccc3ncc(C)n3n2)c1 [JGJ007, N-(3-(3-Methylimidazo[1,2-b]pyridazin-6-yl)phenyl)acetamide]
CYP inhibition 2B6 (CYP 2B6): 45.39
CYP inhibition 2C8 (CYP 2C8): 19.11

CC(=O)N(C)c1cccc(-c2ccc3nnc(C)n3n2)c1 [LN1632]
Weight gain ([1]; 100 mg/kg daily +12 d then every other day +9 d, at +21 d): normal weight gain; also recorded: no significant changes in weight gain
Complete blood count (CBC) profile ([1]; 100 mg/kg daily for +12 d then every other day for +9 d, female C57Bl/6 mice): normal complete blood count (CBC) profile, without any leukopenia or thrombocytopenia, only mild anemia
Tolerability ([1]; 100 mg/kg every other day for 21 d, healthy C57BL/6 mice): non-toxic, well tolerated
Tolerability (MTD evaluation) ([1]; mouse, in vivo): well tolerated
Tumor growth ([2]; THP-1 subQ in NSG mice, 100 mg/kg IP every other day): significantly slowed tumor growth; also recorded: significantly reduced tumor growth
Tumor growth ([2]; THP-1 subQ in NSGS mice, 100 mg/kg IP daily): significantly reduced tumor growth 19 days post injection; also recorded: significantly slowed tumor growth
AML tumor proliferation, LN1632 vs Ara-C ([2]; THP-1 subQ in NSGS mice, daily IP 100 mg/kg LN1632 or 60 mg/kg Ara-C from +d3): increased inhibition of AML tumor proliferation compared to Ara-C or vehicle treated mice; also recorded: inhibited proliferation
AML repopulation capability in vivo (AML pt #13 cells): inhibited AML repopulation capability in vivo
Anti-proliferative / pro-apoptotic effect under PRPF31 overexpression or shRNA silencing (PRPF31): rescued anti-proliferative effects of LN1632; also recorded: abrogated pro-apoptotic effects of LN1632
